# Measurements reported in PMC8422652, “Neuromedin U induces an invasive phenotype in CRC cells expressing the NMUR2 receptor” (Journal of Experimental & Clinical Cancer Research : CR, 2021).
# Key:
# [1] = system: ERK1/2 in Caco-2 NMU clones; assay: ERK1/2 kinase activation in Caco-2 NMU clones with inhibitor; type: cell-based, human; details: preincubated 1 h with 20 µM inhibitor, immunoblot, n ≥ 4
# Experimental: CRC cells were lysed with RIPA buffer (100 mM TRIS-HCl, pH 7.5, 300 mM NaCl, 0.2 % SDS with 1 % IGEPAL CA-630 and the Halt™ Protease Inhibitor Cocktail (Thermo Fisher Scientific)) with subsequent centrifugation (18,000 x g, 4 °C, 20 min). Total protein concentration in lysate was quantified by BCA method (Pierce BCA Protein Assay; Thermo Fisher Scientific). Samples were loaded and separated by SDS-PAGE (Mini-PROTEAN TGX Stain-Free Gels; Bio-Rad Laboratories, CA, USA) and transferred onto nitrocellulose membranes (Bio-Rad Laboratories). NMU protein was detected with rabbit anti-NMU antibody (Genetex, CA, USA), for ERK1/2 kinases analysis mouse anti-ERK1/2 (Santa Cruz Biotechnology, USA) and rabbit anti-pERK1/2 antibodies (Invitrogen) were used. In EVs (extracellular vesicles) purity analysis we used rabbit antibodies anti-GM130, anti-annexin V and anti-flotilin-1 (Cell Signaling Technologies, Danvers, MA, USA). Proteins used as loading controls were detected by mouse anti-β-actin, mouse anti-α-tubulin or rabbit anti-GAPDH antibody (Abcam, Cambridge, GB). We used secondary HRP-conjugated goat anti-mouse (Santa Cruz Biotechnology) or anti-rabbit antibodies (Invitrogen). The signal was detected by chemiluminescence (Thermo Fisher Scientific) with Kodak BioMax Light Film from Eastman Kodak (NY, USA). […]
# Caco-2 NMU1 clone = assay: Cell migration assay (Transwell); type: cell-based, human; details: 8 μm Transwell, 3 h, n = 4
# Experimental: Migration and invasion assays were performed using an 8 μm pore size Transwell system (Thermo Fischer Scientific). First, 2 × 10^5 cells, were incubated with CellTracker™ Green CMFDA Dye (Invitrogen) for 30 min at 37 °C with following washing step with PBS. Cells resuspended in 200 ul of growth medium without FBS were added inside the insert fixed in the well with 600 ul medium with 10 % FBS. For invasion assays, the chamber was pre-coated with 1 mg/ml Matrigel (Corning). Cells were incubated for 3 h (migration) or 6 h (invasion) at 37 °C. Cells on the apical side of the chamber were gently scraped off using cotton swabs, filters were washed in PBS and pictures were taken under the microscope Nikon Eclipse TE 2000-U. Pictures analysis was done with the use of FIJI image processing package.
smiles,measurement,setting,value
COc1cccc(-c2cc(=O)c3ccccc3o2)c1N [PD98059],Activity of the ERK1/2 signalling pathway in the presence of inhibitor,[1],sensitive
same,Cell migration in the presence of inhibitor,Caco-2 NMU1 clone,inhibited
